The test relates to Normal human bladder epithelial cells. The test is described as follows: Inhibition of APF activity by recombinant growth factors, low molecular weight urine fractions, 3H-thymidine incorporation. In kind it is cell-based. The following applies: simultaneous exposure to recombinant growth factor and <3 kDa urine fraction, 48 hours; HB-EGF 0-100 ng/ml (effect evident at 10 ng/ml), EGF 0-100 ng/ml, IGF-1 0-300 pg/ml; FIGS. 6A-6C. How it is done:
Primary normal adult human bladder epithelial (HBE) cells were cultured by the method described above in Part II. On the third day of incubation, cell medium was replaced by serum free MEM containing the less than 3 kDa fraction (i.e, containing the APF) of urine specimens from IC patients or controls (i.e., that part containing the anti-proliferative factor or APF described in related application Ser. No. 08/944,202), or HPLC-purified APF or its mock control along with varying concentrations of recombinant HB-EGF (0-100 ng/ml), EGF (0-100 ng/ml), or IGF-1 (0-300 pg/ml) [all from R & D Systems, Minneapolis, Minn.] diluted in phosphate buffered saline (1:1:1). Urine was prepared by the method described above in Part II and HPLC purified APF was prepared as described above. Following an additional 48 hours of incubation at 37 degrees C. in a 5% CO2 atmosphere, cell proliferation was assessed by ^3H-thymidine incorporation according to the published methods^38.
Normal human bladder epithelial cells were exposed simultaneously to recombinant human growth factors (HB-EGF, EGF, or IGF1) and low molecular weight fractions from IC patients or control urine specimens. Cell proliferation was determined 48 hours later by 3H-thymidine incorporation (FIGS. 6A-6C). Bar values indicate the mean of 5-8 determinations. Vertical lines indicate the standard error of the mean.
(Uptake of a labelled nucleoside into DNA is a usual measure of proliferation.)

With “IGF1: recombinant insulin-like growth factor 1 from R & D Systems”, the “inhibition of APF antiproliferative activity” value is “unable to completely inhibit APF activity”.
As for “epidermal growth factor (NSDSECPLSHDGYCLHDGVCMYIEALDKYACNCVVGYIGERCQYRDLKWWELR; UniProt P01133 971-1023, looked up) [EGF, recombinant epidermal growth factor from R & D Systems]”, the “inhibition of APF antiproliferative activity” value is “unable to completely inhibit APF activity”.

The values above are taken from US20010000783A1, “Treatment of interstitial cystitis” (priority 1998, published 2001).
